Source: patent US11110102B2, “Antifungal agents used in combination” (Scynexis, Inc., priority 2017, dated 2021)
“And” between values parts separate entries of the source, which are not always exact repeats. Identical values can stand only once. Like-named read-outs stand apart in the source and are kept apart here.

Key:
[1] = test system: NIH Aspergillus fumigatus isolate 4215; experiment: Neutropenic rabbit model of invasive pulmonary aspergillosis (New Zealand White rabbits); format: in vivo; conditions: intravenously once daily
Protocol: A study was conducted to evaluate the efficacy of the combination of SCY-078 with isavuconazole. Isavuconazole is a second generation antifungal triazole with activity against Aspergillus spp. As described above, invasive pulmonary aspergillosis is a life-threatening infection in immunosuppressed patients—particularly those with severe and prolonged neutropenia as a consequence of myelotoxic chemotherapy for the treatment of cancer, and those receiving immunosuppressive medication for rejection prophylaxis after organ transplantation or treatment of graft-versus-host disease (GVHD) after allogeneic bone marrow transplantation. A neutropenic rabbit model was selected for this in vivo evaluation to further illustrate the effect of the combination therapy of SCY-078 and an azole, in a relevant immunosuppressed population.
New Zealand White rabbits weighing 2.5 to 3.5 kg (Covance Research Products, Inc., Denver, Pa.) were used in this study. Vascular access was established by the surgical placement of a silastic tunneled central venous catheter. Cytosine arabinoside (Cytosar-U) 525 mg/m^2 was administered intravenously on days 1 through 5, and on days 8, 9, 13 and 14 to produce profound and persistent neutropenia (a neutrophil concentration of <100 neutrophils/μL). Methylprednisolone (Solu-Medrol®, Pfizer, NY) 5 mg/kg was administered on days 1 through 3 to inhibit macrophage activity. […]
Survival, pulmonary infarct, and galactomannan antigenemia (a serological marker of Aspergillus infection) were evaluated as indicators of treatment response. […] Serum galactomannan concentrations were determined by the Platelia® Aspergillus enzyme immunoassay (EIA) (Bio-Rad, Marnes-la-Coquette, France) one-stage immunoenzymatic sandwich microplate assay method. Enzyme immunoassay data were expressed as a serum GMI (galactomannan index) plotted over time.

A. fumigatus MRL #28378 = experiment: Checkerboard combination MIC testing; format: cell-based, Aspergillus fumigatus; conditions: A. fumigatus MRL 28378 (wild-type), read at 48 hours, duplicate; for MIC per drug in Combination: SCY-078 combined with isavuconazole; for MIC: Aspergillus fumigatus, SCY078, 48 h
From the text: To determine the type of interaction between a representative compound of the enfumafungin derivatives (SCY-078) with several antifungal agents against Aspergillus fumigatus, the most frequent mold causing invasive disease in humans, the checkerboard method was used. The citrate salt of the compound was used in the studies.
The checkerboard method involves the determination of percent growth inhibition of fungal cells in the presence of different combinations of drugs. Percent growth inhibition is calculated relative to growth in control wells which contain only cells and no drug. The assay was performed in 96-well microplates in which each row and each column contained twofold serial dilutions of drug A and drug B at concentrations ranging from 0 to slightly higher than their minimum inhibitory concentration (MIC). […] Then the inoculum was added to each well and the growth was evaluated after 48 hrs incubation to determine the first well in which growth was inhibited. The checkerboard-based determination of MICs of antifungal agents in combination was followed by further analysis employing the nonparametric fractional inhibitory concentration index (FICI), which is defined by the following equation:
[formula] where MIC-A and MIC-B are the MICs of drugs A and B, respectively.
Each drug was initially diluted in either sterile, distilled water or in DMSO, depending on whether the drug was water-soluble or water-insoluble, respectively.
Stock solution of SCY-078 was prepared in DMSO at 200 times the concentration desired for use in the drug plates. Serial dilutions of stock solution were conducted in DMSO to obtain eleven 2-fold dilutions of the drug. The SCY-078 solution was then diluted to 4 times the desired concentration in RPMI-1640 medium so that the DMSO would not limit growth of the organism and so that the quantity of DMSO was the same for every dilution.
Two 96-well plates are needed to conduct a combination test. Using a multichannel pipette, 50 μl of the lowest concentration of the first drug (Drug A) was added to each well of column 1 of the first plate (plate A) and column 1 of the second plate (plate B; rows A-D). Then, 50 μl of the next highest working dilution of Drug A was added to each well in column 2, continuing with dilutions until all columns 1-11 were filled. Column 12 was left empty. 50 μl of the lowest concentration of Drug B was added to each well in Row D of plate B. 50 μl of the next highest working dilution of Drug B was added to each well in row C of plate B, continuing with dilutions until all rows through row B of plate A were filled.
Following the above, 100 μl of organism inoculum was added to every well. The plates were then incubated for 48 hours and visually read after incubation.
The objective of the study was to determine whether the combination of SCY-078 with voriconazole, isavuconazole, or amphotericin B would result in a combined in vitro antifungal activity exceeding the sum of the activities of each drug alone. Combination MIC testing was performed using the checkerboard assay described above.
Initial MIC determinations of the individual antifungals were performed according to the Clinical and Laboratory Standards Institute (CLSI) M38-A2 standard for the susceptibility testing of filamentous fungi.
Combination MIC testing was performed using a checkerboard test method according to the Center for Medical Mycology SOP A11.3. The checkerboard combination test method is a modification of the microdilution antifungal susceptibility test wherein two test compounds are combined in varying concentrations to determine whether they have synergistic, antagonistic, or no effect on the respective MIC values.
Antifungals were serially diluted two-fold in RPMI medium to produce eleven concentrations each and were combined in wells of a microtiter plate. Two rows consisting of serial dilutions of each individual drug were included. All combination testing was conducted in duplicate. […]

[2] = drug alone, SCY-078/isavuconazole test, read-out: MIC per drug Alone

SMILES	survival rate up to day 13 ([1]; ISA40: isavuconazole 40 mg/kg/day alone, 2 out of 6) [%]	MIC per drug in Combination (A. fumigatus MRL #28378)	MIC (A. fumigatus MRL #28378; [2]) [µg/mL]	survival rate up to day 13 ([1]; SCY2.5: SCY-078 2.5 mg/kg/day alone, 1 out of 6) [%]	survival until day 13 ([1]; SCY7.5: SCY-078 7.5 mg/kg/day alone, six per group)	MIC in Combination (A. fumigatus MRL #28378; SCY-078 combined with amphotericin B) [µg/mL]	MIC in Combination (A. fumigatus MRL #28378; SCY-078 combined with voriconazole) [µg/mL]	MIC Alone (A. fumigatus MRL #28378; drug alone, SCY-078/voriconazole test) [µg/mL]	MIC (A. fumigatus MRL #28378; drug alone, SCY-078/amphotericin B test, read-out: MIC Alone) [µg/mL]	MIC (A. fumigatus MRL #28378; drug alone, SCY-078/voriconazole test, read-out: MIC Alone) [µg/mL]
C[C@@H](c1nc(-c2ccc(C#N)cc2)cs1)[C@](O)(Cn1cncn1)c1cc(F)ccc1F [Isavuconazole, isavuconazole]	32	0.125 µg/mL and 0.25 µg/mL	1	–	–	–	–	–	–	–
CC(C)[C@@H](C)[C@@]1(C)CC[C@]2(C)[C@H]3CC[C@@H]4[C@@]5(COC[C@@]4(C)[C@@H](OC[C@](C)(N)C(C)(C)C)[C@H](n4ncnc4-c4ccncc4)C5)C3=CC[C@@]2(C)[C@@H]1C(=O)O [SCY-078, (1S,4aR,6aS,7R,8R,10aR,10bR,12aR,14R,15R)-15-[[(2R)-2-amino-2,3,3-trimethylbutyl]oxy]-8-[(1R)-1,2-dimethylpropyl]-14-[5-(4-pyridinyl)-1H-1,2,4-triazol-1-yl]-1,6,6a,7,8,9,10,10a,10b,11,12,12a-dodecahydro-1,6a,8,10a-tetramethyl-4H-1,4a-propano-2H-phenanthro[1,2-c]pyran-7-carboxylic acid]	–	0.125 µg/mL	4	16	no animals surviving until day 13	0.016	0.5	4	4	8
